Data on 23 compounds can be found in US20260248763A1 (BIO GENUINE (SHANGHAI) BIOTECH CO., LTD, priority 2023, published 2026).

One assay has as its target T1, OTR (Homo sapiens, UniProt P30559).
T1 construct: expressed in transfected cells; host or cells: OTR/HEK293 stably transfected cell line
T1 sequence (P30559 1-389): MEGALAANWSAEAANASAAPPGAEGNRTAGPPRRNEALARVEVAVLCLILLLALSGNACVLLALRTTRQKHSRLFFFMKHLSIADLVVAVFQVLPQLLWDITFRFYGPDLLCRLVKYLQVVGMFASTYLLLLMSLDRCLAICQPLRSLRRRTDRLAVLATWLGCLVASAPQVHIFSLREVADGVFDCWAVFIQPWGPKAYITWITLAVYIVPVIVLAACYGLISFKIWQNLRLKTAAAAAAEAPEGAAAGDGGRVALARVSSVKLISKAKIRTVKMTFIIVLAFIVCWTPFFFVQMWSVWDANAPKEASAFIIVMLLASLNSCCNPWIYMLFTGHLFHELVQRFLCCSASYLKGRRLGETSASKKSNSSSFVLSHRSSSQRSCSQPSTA
The assay is described as follows: Ca2+ mobilization in cells stably expressing OTR (FLIPR, antagonist mode). Format: cell-based. The settings on record: OTR/HEK293 stably transfected cell line. A digest of the protocol: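 Antagonist mode: test compounds in 10-point 3-fold series were added on FLIPR to Fluo-4-loaded HEK293 cells stably expressing OTR, followed by reference agonist at its EC80, determined beforehand. The Max-Min calcium fluorescence response was fitted in Prism.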
Background: Calcium flux is commonly read through the fluorescence of an indicator in the cells.

For a further assay, the target named is T2, V1aR (Homo sapiens, UniProt P37288).
T2 construct: expressed in transfected cells; host or cells: V1a-CHO stably transfected cell line
T2 sequence (P37288 whole entry, species assumed): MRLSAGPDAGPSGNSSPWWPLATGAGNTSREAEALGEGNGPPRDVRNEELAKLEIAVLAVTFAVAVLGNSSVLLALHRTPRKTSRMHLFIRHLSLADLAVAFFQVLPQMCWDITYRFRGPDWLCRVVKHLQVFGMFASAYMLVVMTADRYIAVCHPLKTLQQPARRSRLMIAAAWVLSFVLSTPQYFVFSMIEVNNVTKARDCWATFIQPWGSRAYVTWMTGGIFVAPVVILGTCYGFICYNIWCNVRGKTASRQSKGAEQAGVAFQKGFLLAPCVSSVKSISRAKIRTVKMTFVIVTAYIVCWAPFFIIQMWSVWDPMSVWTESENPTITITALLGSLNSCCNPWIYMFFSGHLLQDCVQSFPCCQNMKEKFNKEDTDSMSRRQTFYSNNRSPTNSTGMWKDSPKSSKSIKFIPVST
The assay is described as follows: Ca2+ mobilization in cells stably expressing V1aR (FLIPR, antagonist mode). Format: cell-based. The settings on record: V1a-CHO stably transfected cell line. An excerpt:
Test Example 2. Determination of the Effect of the Compound of the Present Disclosure on Ca^2+ Mobilization in Cells Stably Expressing V1aR
To measure the antagonistic effect of the compound of the present disclosure on V1aR activity expressed in the V1a-CHO stably transfected cell line.
• F-12 (Hyclone, SH30026.01) • FLIPR CALCIUM 6 ASSAY KIT (Molecul Device, R8191) • Fetal Bovine Serum (FBS) (AusGeneX, FBS500-S) • Hygromycin B (Solarbio, H8080-1g) • DMSO (Sigma, D4540) • HBSS (Gibco 14025-092) • Probenecid (MCE, HY—B0545) • 0.36 mL 96 Round V-bottom Deep Well Plates for Laboratory (Biaosen P-0.36-BSA-96) • 384-well conical bottom polypropylene plate (Nunc, 264573) • Corning® 384-well Flat Clear Bottom Black Polystyrene TC-treated Microplates (Corning 3764)
• Biological safety cabinet (ECSO, AC2-6S1-TC) • Carbon dioxide cell incubator (ECSO, CCI-170B-8) • Inverted microscope (Olympus, CKX53) • Microplate low-speed centrifuge (Xiangzhi, TD5B) • FLIPR® Penta (Molecul Device, 5.0)
• 1. Cell plating: V1a-CHO cells were digested and harvested, resuspended and counted, and then inoculated into a 384-well cell plate at a density of: 1.2×10^4 cells/25 μL/well. The cell plate was then incubated in an incubator at 37° C. with 5% CO2 for about 16-20 h. • 2. The next day: after preparing Assay Buffer, 20× Component A was thawed to room temperature, diluted with Assay buffer to 1× loading buffer, and placed at room temperature for later use. • 3. The medium was removed from the cell plate, and 40 μL of 1× loading buffer was quickly added to each well. After centrifugation, the cell plate was incubated at 37° C. in the dark for 120 minutes. • 4. The serially diluted positive compound, serially diluted test compound, and agonist working solution were formulated. After mixing the serially diluted positive compound/serially diluted test compound with the agonist at a 1:1 ratio, 20 μL per well was transferred to a 384-well compound source plate. • 5. The cell plate, agonist source plate, and pipette tips were placed into their respective positions in the FLIPR instrument. Using FLIPR Tetra, 10 μL of the diluted agonist from Step 4 was added to each test well, and the data were collected at a wavelength of 515 nm-575 nm. • 6. The signal values were plotted against the compound concentrations, and the curve fitting and IC50 calculation were performed using the nonlinear regression method of GraphPad Prism software.

Structures are written as SMILES.

In general, IC50 refers to the concentration that inhibits the measured activity by half. Turning to `COCCOc1cc(C(=O)N2C/C(=N\OC)C[C@H]2CO)ccc1-c1cccc(C#N)c1C` [Example A0191, (S, Z)-4′-(2-(Hydroxymethyl)-4-(methoxyimino)pyrrolidine-1-carbonyl)-2′-(2-methoxyethoxy)-2-methyl-[1, 1′-biphenyl]-3-carbonitrile], the IC50 at OTR was found to be 16.8 nM; against V1aR, 1020 nM.
For the compound `CON=C1CC(CO)N(C(=O)c2ccc(-c3cccc(C#N)c3C)c3c2OCO3)C1` (single isomer, unassigned) [Example C0098], the values for the IC50 against OTR and against V1aR were 55.9 nM and 13200 nM, respectively.
Taken in the same sequence, the figures for `CO/N=C1/C[C@@H](CO)N(C(=O)c2ccc(-c3cccc(C)c3C)cc2C)C1` [Example C0045, (S, Z)-(2-(Hydroxymethyl)-4-(methoxyimino)pyrrolidin-1-yl)(3-methyl-2′,3′-dimethyl-[1,1′-biphenyl]-4-yl)methanone] were 16 nM and 3500 nM.
In the case of `CO/N=C1/C[C@@H](CO)N(C(=O)c2ccc(-c3cccc(C)c3C)c3c2OCO3)C1` [Example C0062, (S, Z)-(7-(2,3-Dimethylphenyl)benzo[d][1,3]dioxol-4-yl)(2-(hydroxymethyl)-4-(methoxyimino)pyrrolidin-1-yl)methanone], the IC50 is 10.6 nM against OTR and 2740 nM against V1aR.
In the same order, the values of `CO/N=C1/C[C@@H](CO)N(C(=O)c2ccc(-c3cccc(C#N)c3C)cc2C)C1` [Example A0241, 3-(4-[(2S,4Z)-2-(Hydroxymethyl)-4-(methoxyimino)pyrrolidine-1-carbonyl]-3-methylphenyl)-2-methylbenzonitrile] are 20.3 nM and 6130 nM.
Turning to `CO/N=C1/C[C@@H](CO)N(C(=O)c2cc(F)c(-c3cccc(C#N)c3C)c3c2OCO3)C1` [Example C0162, 3-(5-Fluoro-7-((S,Z)-2-(hydroxymethyl)-4-(methoxyimino)pyrrolidine-1-carbonyl)benzo[d][1,3]dioxol-4-yl)-2-methylbenzonitrile], the IC50 is 8.35 nM against OTR and 747 nM on V1aR.
As for `CO/N=C1/C[C@@H](CO)N(C(=O)c2ccc(-c3cccc(C#N)c3C)c(C#N)c2)C1` [Example A0173, 2-(3-Cyano-2-methylphenyl)-5-[(2S, 4Z)-2-(hydroxymethyl)-4-(methoxyimino)pyrrolidine-1-carbonyl]benzonitrile], the IC50 against OTR turned out to be 36.1 nM; on V1aR it was 8770 nM.
On to `CO/N=C1/C[C@@H](CO)N(C(=O)c2ccc(-c3cccc(C#N)c3C)c3c2cnn3C)C1` [Example A0167, 3-(4-[(2S,4Z)-2-(Hydroxymethyl)-4-(methoxyimino)pyrrolidine-1-carbonyl]-1-methyl-1H-indazol-7-yl)-2-methylbenzonitrile], for which the results for the IC50 at OTR and against V1aR were 49.8 nM and 1480 nM, respectively.
On to `CO/N=C1/C[C@@H](CO)N(C(=O)c2ccc(-c3cccc(Cl)c3C)cc2)C1` [Example C0056, (S, Z)-(3′-Chloro-2′-methyl-[1,1′-biphenyl]-4-yl)(2-(hydroxymethyl)-4-(methoxyimino)pyrrolidin-1-yl)methanone], for which the 50% inhibitory concentration (IC50) against OTR was found to be 10.2 nM; at V1aR, 2760 nM.
In the same order, the values of `CO/N=C1/C[C@@H](C(C)O)N(C(=O)c2ccc(-c3ccccc3C)cc2)C1` (mixture of isomers) [Example C0067, (S, Z, RS)-(2-(1-Hydroxyethyl)-4-(methoxyimino)pyrrolidin-1-yl)(2′-methyl-[1,1′-biphenyl]-4-yl)methanone] are 13 nM and 223 nM.
Taken in the same sequence, the figures for `CO/N=C1/C[C@@H](C(C)(C)O)N(C(=O)c2ccc(-c3cccc(C#N)c3C)cc2)C1` [Example C0164, (S,Z)-4′-(2-(2-Hydroxypropan-2-yl)-4-(methoxyimino)pyrrolidine-1-carbonyl)-2-methyl-[1,1′-biphenyl]-3-carbonitrile] were 20.6 nM and 1870 nM.
In the same order, the values of `CO/N=C1/C[C@@H](CO)N(C(=O)c2ccc(-c3cccc(C#N)c3C)c3c2OCCN3C)C1` [Example A0162] are 31.5 nM and 587 nM.
`CO/N=C1/C[C@@H](CO)N(C(=O)c2ccc(-c3cccc(C)c3C)c3c2CCC3)C1` [Example C0083, (S,Z)-(7-(2,3-Dimethylphenyl)-2,3-dihydro-1H-inden-4-yl)(2-(hydroxymethyl)-4-(methoxyimino)pyrrolidin-1-yl)methanone]: the IC50 came out at 11.1 nM at OTR and 2920 nM against V1aR.
With `CO/N=C1/C[C@@H](CO)N(C(=O)c2ccc(-c3cccc(C)c3C)c(OC)c2)C1` [Example C0064, (S, Z)-(2-(Hydroxymethyl)-4-(methoxyimino)pyrrolidin-1-yl)(2-methoxy-2′,3′-dimethyl-[1,1′-biphenyl]-4-yl)methanone], the IC50 amounted to 11 nM against OTR and 584 nM against V1aR.
As for `CO/N=C1/C[C@@H](CO)N(C(=O)c2ccc(-c3cccc(C)c3C)c(OC)n2)C1` [Example C0073, (S, Z)-(5-(2,3-Dimethylphenyl)-6-methoxypyridin-2-yl)(2-(hydroxymethyl)-4-(methoxyimino)pyrrolidin-1-yl)methanone], the IC50 came out at 42.2 nM against OTR and 5030 nM against V1aR.
Taken in the same sequence, the figures for `CO/N=C1/C[C@@H](CO)N(C(=O)c2ccc(-c3ccccc3C)c(C)c2)C1` [Example C0046, (S, Z)-(2′,2-Dimethyl-[1,1′-biphenyl]-4-yl)(2-(hydroxymethyl)-4-(methoxyimino)pyrrolidin-1-yl)methanone] were 22.1 nM and 1850 nM.
`CO/N=C1/C[C@@H](CO)N(C(=O)c2ccc(-c3ccccc3C)cc2C)C1` [Example C0044, (S, Z)-(2′,3-Dimethyl-[1,1′-biphenyl]-4-yl)(2-(hydroxymethyl)-4-(methoxyimino)pyrrolidin-1-yl)methanone]: the values for the IC50 against OTR and against V1aR were 78.5 nM and 5510 nM, respectively.
Taken in the same sequence, the figures for `CO/N=C1/C[C@@H](CO)N(C(=O)c2ccc(-c3cccc(C#N)c3C)c3c2OCCCO3)C1` [Example A0235, (S,Z)-3-(9-(2-(Hydroxymethyl)-4-(methoxyimino)pyrrolidine-1-carbonyl)-3,4-dihydro-2H-benzo[b][1,4]dioxepin-6-yl)-2-methylbenzonitrile] were 23.2 nM and 1360 nM.
Take `CO/N=C1\C[C@@H]([C@@H](C)O)N(C(=O)c2ccc(-c3cccc(C#N)c3C)cc2)C1` (single isomer, unassigned) [Example C0113]: the IC50 at OTR is 55.3 nM; against V1aR, 1560 nM.
Consider `CO/N=C1/C[C@@H](CO)N(C(=O)c2cc(OC)c(-c3cccc(C#N)c3C)cn2)C1` [Example A0216, 3-(6-[(2S, 4Z)-2-(Hydroxymethyl)-4-(methoxyimino)pyrrolidine-1-carbonyl]-4-methoxypyridin-3-yl)-2-methylbenzonitrile], for which the IC50 against OTR is 198 nM.
Turning to `CO/N=C1\CN(C(=O)c2ccc(-c3ccccc3C)cc2)C(CO)(CO)C1` [Example A0083, (Z)-(2,2-Bis(hydroxymethyl)-4-(methoxyimino)pyrrolidin-1-yl)(2′-methyl-[1, 1′-biphenyl]-4-yl)methanone], half-maximal inhibition on OTR (IC50) was put at 539 nM.
The compound `CON=C1CN(C(=O)c2ccc(-c3ccccc3C)cc2)C2COCCN12` (mixture of isomers) [Example C0033, (EZ)-(3-(Methoxyimino)hexahydro-1H-imidazo[2,1-c][1,4]oxazin-1-yl)(2′-methyl-[1, 1′-biphenyl]-4-yl)methanone] gave an IC50 at OTR of 1900 nM.
In turn, `CON=C1C[C@@H](CNC(C)=O)N(C(=O)c2ccc(-c3ccccc3C)cc2)C1` (single isomer, unassigned) [Example C0006] gave an IC50 against OTR of 1740 nM.
